O=[N+]([O-])/N=C1\NCCN1Cc1ccc(Cl)nc1
Conditions	solubility (mole fraction)
in 1,2-dichloroethane, 299.96 K	0.00987
in 1,2-dichloroethane, 302.87 K	0.0108
in 1,2-dichloroethane, 304.97 K	0.0116
in 1,2-dichloroethane, 310.08 K	0.0142
in 1,2-dichloroethane, 314.14 K	0.0161
in 1,2-dichloroethane, 317.43 K	0.0183
in 1,2-dichloroethane, 321.31 K	0.0213
in 1,2-dichloroethane, 325.67 K	0.0243
in 1,2-dichloroethane, 328.74 K	0.0271
in 1,2-dichloroethane, 331.34 K	0.0309
in 1,2-dichloroethane, 333.75 K	0.0345
in 1,2-dichloroethane, 336.91 K	0.0392
in 1,2-dichloroethane, 339.95 K	0.0442
in 1,2-dichloroethane, 342.81 K	0.049
in 1,2-dichloroethane, 345.2 K	0.0546
in 1,2-dichloroethane, 347.1 K	0.0612
in 2-butanone, 293.07 K	0.0159
in 2-butanone, 299.44 K	0.0192
in 2-butanone, 302.54 K	0.0213
in 2-butanone, 306.3 K	0.0238
in 2-butanone, 308.85 K	0.026
in 2-butanone, 311.24 K	0.0281
in 2-butanone, 314.22 K	0.0308
in 2-butanone, 318.19 K	0.0346
in 2-butanone, 320.83 K	0.0379
in 2-butanone, 323.87 K	0.0419
in 2-butanone, 326.73 K	0.046
in 2-butanone, 329.81 K	0.0504
in 2-butanone, 332.97 K	0.0573
in 2-butanone, 335.21 K	0.0617
in 2-butanone, 337.54 K	0.0678
in 2-butanone, 340.65 K	0.0749
in 2-butanone, 343.2 K	0.0823
in acetone, 294.64 K	0.012
in acetone, 300.05 K	0.0141
in acetone, 301.76 K	0.0148
in acetone, 305.05 K	0.0162
in acetone, 307.77 K	0.0175
in acetone, 310.17 K	0.0187
in acetone, 317.25 K	0.0232
in acetone, 319.14 K	0.0248
in acetone, 321.59 K	0.0265
in acetone, 327.89 K	0.0325
in acetone, 330.2 K	0.0353
in chloroform, 292.04 K	0.00848
in chloroform, 294.49 K	0.00916
in chloroform, 298.22 K	0.0102
in chloroform, 303.84 K	0.0115
in chloroform, 307.04 K	0.0123
in chloroform, 310.05 K	0.0132
in chloroform, 314.03 K	0.0143
in chloroform, 316.75 K	0.0153
in chloroform, 319.07 K	0.0167
in chloroform, 321.74 K	0.0183
in chloroform, 324.64 K	0.0198
in chloroform, 326.71 K	0.0215
in chloroform, 330.16 K	0.024
in dichloromethane, 293.97 K	0.0132
in dichloromethane, 295.96 K	0.0146
in dichloromethane, 298 K	0.0157
in dichloromethane, 300.05 K	0.0166
in dichloromethane, 302.6 K	0.0177
in dichloromethane, 303.99 K	0.0189
in dichloromethane, 305.96 K	0.0199
in dichloromethane, 307.8 K	0.0211
in dichloromethane, 309.6 K	0.0223
in dichloromethane, 311.66 K	0.0236
in dichloromethane, 313.14 K	0.0248
in dichloromethane, 313.93 K	0.0254
in ethanol, 298.69 K	0.000502
in ethanol, 301.12 K	0.000569
in ethanol, 305.66 K	0.000794
in ethanol, 308.87 K	0.001
in ethanol, 312.34 K	0.00118
in ethanol, 315.96 K	0.00136
in ethanol, 318.07 K	0.00151
in ethanol, 320.74 K	0.0017
in ethanol, 323.96 K	0.00197
in ethanol, 327.54 K	0.00225
in ethanol, 330.06 K	0.00251
in ethanol, 333.57 K	0.00289
in methanol, 293.79 K	0.00102
in methanol, 295.38 K	0.00111
in methanol, 299.81 K	0.00136
in methanol, 302.15 K	0.00156
in methanol, 305.86 K	0.00179
in methanol, 309.32 K	0.00211
in methanol, 312.62 K	0.00247
in methanol, 315.38 K	0.00283
in methanol, 320.59 K	0.00361
in methanol, 323.37 K	0.00413
in methanol, 328.11 K	0.0053
in methanol, 330.75 K	0.00598
in methanol, 333.34 K	0.00676
in water, 302.76 K	2.68e-05
in water, 308.62 K	3.94e-05
in water, 314.75 K	4.87e-05
in water, 324.15 K	8.35e-05
in water, 329.34 K	0.000119
in water, 330.75 K	0.000132
in water, 334.52 K	0.000169
in water, 340.44 K	0.000231
in water, 344.57 K	0.000287
in water, 346.87 K	0.000323
in water, 348.94 K	0.000363

Source: BigSolDB 2.1
